Laboratory results reported in ChEMBL document CHEMBL3507680, “University of Dundee, Gates Library screen for HepG2 cell viability”.

Assay: Human HepG2 cell viability assay in 384 well format
Assay type: toxicity, cell-based
Parameters: dose 125 nL, time 70.5 hour; cytotoxicity at 70.5 h: concentration not given beside the values
Conditions: HepG2 cells, read-out: Inhibition

| Structure (SMILES) | cytotoxicity at 70.5 h |
| --- | --- |
| O=C(N1CCCC(n2cncn2)C1)C1(c2ccccc2F)CCCC1 (stereo unspecified) | -5.6% |
| Cc1cc(NC(=O)CNc2cccc(C(=O)N3CCCC(O)C3)c2)no1 (stereo unspecified) | -3.66% |
| CCN1Cc2ccccc2CC2(CCN(C(=O)N(C)C)CC2)C1=O | -5.37% |
| Cc1nc(C(=O)N(C)CC(=O)N(C)C)nn1-c1ccccc1C(C)C | 33.6% |
| Cc1c[nH]nc1C1CCCN(C(=O)Cn2cccn2)C1 (stereo unspecified) | -5.23% |
| Cc1occc1C(=O)N1CCC2(CCN(Cc3cccs3)C2)CC1 | -1.13% |
| Cc1cc(C)n(NC(=O)c2cccc3c2OCC3)c(=O)c1 | -6.18% |
| COc1cccc(CC2CCCN2Cc2nccn2C)c1 (stereo unspecified) | -5% |
| Cc1nnc(NCC(c2ccco2)N2CCCC2)c(C#N)c1C (stereo unspecified) | 3.51% |
| CCCNC(=O)CN1CCC(NCc2csc(C(C)C)n2)CC1 | -11.5% |
| O=C(CCCN1CCCCC1)N[C@H](C(=O)O)c1cccc(F)c1F | -6.96% |
| CN(C)[C@@H]1CCN(S(C)(=O)=O)[C@H]1Cc1ccccc1 | 1.53% |
| C[C@@H]1CN(Cc2cccnc2)C[C@]12CCN(CCN1CCCC1)C2=O | -4.97% |
| CNc1cc(C2CN(C(=O)c3ccn(C)n3)CCO2)nc(C)n1 (stereo unspecified) | 26.5% |
| CC1CCN(C(=O)Cc2ccc(S(=O)(=O)C(F)F)cc2)CC1 | -11% |
| CCCOCC1CCN(C(=O)Cn2cccc(C(F)(F)F)c2=O)C1 (stereo unspecified) | 3.49% |
| CC1N(C)C(=O)COC12CCN(C(=O)CCc1ccccc1)CC2 (stereo unspecified) | 5.92% |
| COc1ccc(-c2nc(CN3CCc4cncnc4C3)no2)cc1 | -3.32% |
| O=S(=O)(Cc1cccc(Cl)c1)CC(O)Cn1cccn1 (stereo unspecified) | -5.5% |
| Cc1nc(CCCNC(=O)[C@H]2CNC[C@@H](C(=O)N3CCCC3)C2)sc1C | -5.47% |
| CCCC(=O)N1C[C@@H]2CCN(c3cnccn3)C[C@@H]2C1 | 8.32% |

| Structure (SMILES) | cytotoxicity at 70.5 h |
| --- | --- |
| Cc1cc(CN(C)C(=O)c2ccc(F)cc2F)no1 | -7.99% |
| N#Cc1ccc(CN2CCCC2Cn2cccn2)c(F)c1 (stereo unspecified) | 4.66% |
| c1ccc2c(N3CCCCC3Cn3cncn3)ncnc2c1 (stereo unspecified) | -9.62% |
| Cc1nc2c(c(N(C)C)n1)CCN(C(=O)CN1CCC(O)CC1)C2 | -6.35% |
| CCOc1ccc(C#N)cc1NCC(=O)NC(=O)NC | -3.9% |
| Cc1ccc(N2CCC(c3cc(Cc4ccccc4)n[nH]3)CC2)nn1 | -9.6% |
| COc1ccccc1-c1cc(C(=O)N(C)C)c2cnn(C)c2n1 | -11.2% |
| CS(=O)(=O)NC1CCN(C(=O)c2ccc(Br)cc2)C1 (stereo unspecified) | -7.16% |
| O=C(O)c1ccccc1C1CCN(C2CCN(c3ccccc3)CC2)C1 (stereo unspecified) | 0.408% |
| CC(c1ccc(S(N)(=O)=O)cc1)N(C)C(=O)c1ccccc1I (stereo unspecified) | -5.97% |
| Cc1n[nH]c(C2CN(C(=O)CCc3ccco3)CCO2)n1 (stereo unspecified) | 9.82% |
| COCCc1noc(CN2CCCC2c2noc(C(C)C)n2)n1 (stereo unspecified) | 17.1% |
| CC(CNC(=O)N1CCC(CO)CC1)Cc1cccs1 (stereo unspecified) | -3.99% |
| O=C(NC1CC1)C1CCc2nnc(-c3cccc(C(F)(F)F)c3)n21 (stereo unspecified) | -11.5% |
| CCCN(CC(F)F)C(=O)CCc1c(C)nc2cc(O)nn2c1C | 23.2% |
| COc1ccc(CN2C[C@@H](OCc3ccccn3)[C@H]3COC[C@H]32)cc1 | -23.2% |
| CC(C)c1nc(C(=O)N2CCc3ccccc3C2C(=O)O)cs1 (stereo unspecified) | -2.12% |
| CNC(=O)NC(=O)CN1CCC(c2cccc(F)c2)C1 (stereo unspecified) | -4.22% |
| CCOc1ccc(N(CCC#N)C(=O)c2ccnc(SC)c2)cc1 | 9.66% |
| Cn1cc(C(=O)N[C@@H]2CN(Cc3cccnc3)[C@@H]3CCCO[C@@H]32)cn1 | -4.29% |
| CCOc1ccc(C(=O)NC2CC2)cc1C | -7.46% |

| Structure (SMILES) | cytotoxicity at 70.5 h |
| --- | --- |
| Cc1ncc(CN2C[C@H]3C[C@H](OCc4ccccc4)C[C@H]3C2)cn1 | -6.93% |
| Cc1ccc2c(c1)[C@@H](CC(=O)N(C)C)CCO2 | -2.63% |
| CCn1ccnc1S(=O)(=O)Cc1ccc(C(N)=O)cc1 | -2.48% |
| Cc1ccc(CNC2(Cc3cc(-c4ccccn4)on3)COC2)o1 | -1.75% |
| Cc1nc(C)c(CC(=O)N2C[C@@H]3CC[C@H](C2)N(CC2CC2)C3)s1 | -3.8% |
| COc1ccc(F)c(-c2cc(O)nc(N)n2)c1 | -9.12% |
| CC(C)c1nnc2sc(CC3CCS(=O)(=O)C3)nn12 (stereo unspecified) | -7.56% |
| CCc1ccc(C(=O)O)cc1S(=O)(=O)N(C)c1cccc(C)c1 | -7.54% |
| Cc1nc(C2CCCN2CCCS(N)(=O)=O)no1 (stereo unspecified) | 17% |
| O=C(NCCc1cccs1)[C@]12COC[C@H]1CN(Cc1ccncc1)C2 | -9.54% |
| COc1ccccc1CC1CCCN(C(=O)c2cn[nH]c2C)C1 (stereo unspecified) | -10.8% |
| CN(Cc1cccnc1)C1CC2(CCN(Cc3cccnc3)CC2)C1 | -13.8% |
| O=C(CSc1nc2nncc-2c(O)n1-c1ccccc1)N1CCOCC1 | -10.6% |
| Cc1cc(C2CCC2)nc(N(C)CCc2ccccn2)n1 | -5.51% |
| Cc1c(Cl)cccc1NC(=O)Cn1cc(C(=O)O)ccc1=O | -10.5% |
| Cn1nc2c(cc1=O)CN(Cc1nc(N)c3ccccc3n1)CC2 | 7.46% |
| Cc1ccc(OC2(C(=O)O)CCN(C(=O)c3ccc(F)cc3)CC2)cn1 | -7.2% |
| CCN(Cc1ccccc1)Cc1nc2c(cnn2C)c(=O)[nH]1 | 17% |
| Cc1cc(Br)ccc1NCC(=O)Nc1cc(C(C)(C)C)no1 | -4.88% |
| Cc1[nH]c2ccc(CNc3cc(C(=O)NC(C)C)ccn3)cc2c1C | -1.62% |
| CCn1nc(CC(C)C)cc1C(=O)N1CCCOC(CN2CCCC2)C1 (stereo unspecified) | -3.36% |

| Structure (SMILES) | cytotoxicity at 70.5 h |
| --- | --- |
| C[S+]([O-])c1ccc(NC(=O)CC2=CCCCC2)cc1 (stereo unspecified) | -3.55% |
| O=C(CS(=O)(=O)Cc1nnnn1C1CC1)NCCc1ccccc1 | -3.81% |
| Cc1ccc(C(=O)NS(=O)(=O)c2ccc3c(c2)OCCCO3)o1 | 11.7% |
| COCC(=O)N1CCC(c2cc(-c3ccc(OC)cc3)n[nH]2)C1 (stereo unspecified) | 10.4% |
| c1ccc(CN2CCC3(CC2)CCN(Cc2cccs2)C3)nc1 | 0.064% |
| CC1(C)CCC(C(=O)N2CCCO2)c2ccccc21 (stereo unspecified) | 9.21% |
| CS(=O)(=O)N1C[C@@H]2CC[C@H](C1)N(C/C=C/c1ccc(F)cc1)C2 | -4.45% |
| Cc1c(Br)cccc1CNC1(CCO)CCOCC1 | -1.58% |
| Cc1cccc2nc(CN3CCCC3Cn3cccn3)cn12 (stereo unspecified) | -10.8% |
| Cc1csc(NC(=O)c2cnc(C3CCCN3)cn2)n1 (stereo unspecified) | -13.1% |
| CCCc1nc(C)c(C(=O)Nc2cccc(C)n2)s1 | 23.8% |
| Cc1ocnc1C(=O)N1CCCN(Cc2cscn2)CC1 | 21.9% |
| CCCn1cnc2c1CN(C(=O)c1ccc(F)cc1)[C@H](C(=O)OC)C2 | -7.42% |
| Cc1noc(C(C)Nc2ccc3oc(=O)[nH]c3c2)n1 (stereo unspecified) | -0.467% |
| O=C(c1ccc2cccnc2n1)N(Cc1ccsc1)CC1CCCO1 (stereo unspecified) | -12.4% |
| O=C(Cc1cccs1)N1C[C@@H]2OCCN(CC3CCCC3)[C@@H]2C1 | -3.16% |
| Cn1ccnc1CNCC1CCCN1c1cccnn1 (stereo unspecified) | -4.3% |
| CCN1CCC(CNC(=O)Nc2cnn(CC(N)=O)c2)C1 (stereo unspecified) | -8.69% |
